Assay results: the NIST ThermoML archive (doi:10.1016/j.jct.2011.07.003)
Values joined by “and” are separate entries in the source; they are usually repeats but may differ in a detail not shown here. Identical values can stand only once. ± gives the expanded uncertainty stated by the source.

Conditions: Calculated from knudsen effusion weight loss

vapor or sublimation pressure (337.2 K, Crystal)	vapor or sublimation pressure (318.47 K, Crystal 2)	vapor or sublimation pressure (328.2 K, Crystal 2)	Compound	vapor or sublimation pressure (321.79 K, Crystal)	vapor or sublimation pressure (328.88 K, Crystal)	vapor or sublimation pressure (345.77 K, Crystal)	vapor or sublimation pressure (352.86 K, Crystal)	vapor or sublimation pressure (360.64 K, Crystal)	vapor or sublimation pressure (295.73 K, Crystal 2)	vapor or sublimation pressure (302.13 K, Crystal 2)	vapor or sublimation pressure (307.66 K, Crystal 2)	vapor or sublimation pressure (313.1 K, Crystal 2)	vapor or sublimation pressure (323 K, Crystal 2)	vapor or sublimation pressure (332.95 K, Crystal 2)
9.3e-05 ± 5e-06 kPa [middle of 7 runs]			c1ccc2cc3ccccc3cc2c1 [anthracene]	1.7e-05 ± 1e-06 kPa and 1.8e-05 ± 1e-06 kPa and 1.9e-05 ± 1e-06 kPa	3.9e-05 ± 2e-06 kPa and 3.7e-05 ± 2e-06 kPa and 4e-05 ± 2e-06 kPa	0.000236 ± 1.2e-05 kPa [middle of 6 runs]	0.000473 ± 2.4e-05 kPa [middle of 6 runs]	0.000988 ± 4.9e-05 kPa [middle of 5 runs]						
	0.000208 ± 1e-05 kPa [middle of 6 runs]	0.00059 ± 3e-05 kPa [middle of 6 runs]	c1ccc2c(c1)ccc1ccccc12 [phenanthrene]						1.4e-05 ± 1e-06 kPa and 1.5e-05 ± 1e-06 kPa	3.2e-05 ± 2e-06 kPa and 3.1e-05 ± 2e-06 kPa	6.1e-05 ± 3e-06 kPa and 6.4e-05 ± 3e-06 kPa and 6.2e-05 ± 3e-06 kPa	0.000118 ± 6e-06 kPa and 0.000119 ± 6e-06 kPa	0.000341 ± 1.7e-05 kPa [middle of 5 runs]	0.000959 ± 4.8e-05 kPa [middle of 6 runs]
